Laboratory results as given in US20080221218A1, “Receptor” (The University of York, priority 2005, published 2008).

Legend:
[1] = literature (Bertsch et al.); cited from earlier work
[2] = Potentiometric titrations: binding of inorganic phosphate (equimolar KH2PO4 and receptor); conditions: for Binding constant (Log K) H3L3+ + HA2− ⇄ H4LA+ / Binding constant (Log K) H4L4+ + HA2− ⇄ H5LA2+ / Protonation and binding constant (Log K) 4H+ + L + A3− ⇄ H4LA+ / Protonation and binding constant (Log K) 5H+ + L + A3− ⇄ H5LA2+ / Binding constant (Log K) H2L2+ + HA2− ⇄ H3LA / Binding constant (Log K) H4L4+ + H2A− ⇄ H6LA3+ / Protonation and binding constant (Log K) 3H+ + L + A3− ⇄ H3LA / Protonation and binding constant (Log K) 6H+ + L + A3− ⇄ H6LA3+: A = phosphate, 0.1 M KCl, 25° C.; for Binding constant (Log K) H3L3+ + HA2− ⇄ H4LA+ / Binding constant (Log K) H4L4+ + HA2− ⇄ H5LA2+ / Protonation and binding constant (Log K) 4H+ + L + A3− ⇄ H4LA+ / Protonation and binding constant (Log K) 5H+ + L + A3− ⇄ H5LA2+ / affinity towards inorganic phosphate (log K), range over protonation states / Binding constant (Log K) H2L2+ + HA2− ⇄ H3LA / Binding constant (Log K) H4L4+ + H2A− ⇄ H6LA3+ / Protonation and binding constant (Log K) 3H+ + L + A3− ⇄ H3LA / Protonation and binding constant (Log K) 6H+ + L + A3− ⇄ H6LA3+: potentiometry; for Protonation and binding constant (Log K) 4H+ + L + A3− ⇄ H4LA+ / Protonation and binding constant (Log K) 5H+ + L + A3− ⇄ H5LA2+ / Protonation and binding constant (Log K) 3H+ + L + A3− ⇄ H3LA / Protonation and binding constant (Log K) 6H+ + L + A3− ⇄ H6LA3+: overall constant; for phosphate in solution bound by receptor: pH 7.0, from speciation diagrams of potentiometric data (FIG. 4); for affinity towards inorganic phosphate (log K), range over protonation states: summary of Table 2; for Binding constant (Log K) H2L2+ + HA2− ⇄ H3LA / Binding constant (Log K) H4L4+ + H2A− ⇄ H6LA3+ / Protonation and binding constant (Log K) 3H+ + L + A3− ⇄ H3LA / Protonation and binding constant (Log K) 6H+ + L + A3− ⇄ H6LA3+: dash = equilibrium does not occur significantly
Method: (§1) Potentiometric measurements were conducted using a Metrohm 792SM Titrino automated burette fitted with a combined glass electrode and an in-house designed jacketed glass cell thermostated at 25° C. suitable for small sample volumes (5 mL). The cell was sealed under an inert atmosphere. All solutions were made up using ultrapure CO2-free water from a Millipore Simplicity 185 system. The sample solutions contained 0.1 M KCl as a background electrolyte. The titrant base was made up from commercial (Riedel-de Haën) CO2-free concentrates of KOH, diluted to the required concentration (0.020 M) with a 0.080 M KCl solution to avoid problems of different ionic strengths. The glass electrode was calibrated by titrating well-known amounts of HCl (made up from Riedel-de Haën concentrates) with the base and determining the equivalence point using Gran's method (G. Gran, Analyst, 1952, 77, 661-671) yielding the ionic product of water (pKw=13.78), which was used as a constant in the subsequent analyses.
(§2) Sample concentrations were typically 1.0-5.0×10^−3 M. A known excess of HCl was added to ensure full protonation of the receptor. The degree of protonation of our receptors was calculated from the onset of titration curve. […] A minimum of 250 points in the pH-range of 2.5-11.0 was taken for every titration, with at least 30 seconds between each addition to ensure equilibration. The computer program […]^I was used to determine the protonation and stability constants. For each system a minimum of three titrations were first treated as individual sets and then merged and fitted simultaneously to give the final constants.

[3] = Potentiometric titrations: protonation constants; assay type: physicochemical; conditions: potentiometry, 0.1 M KCl, 25° C.; for Protonation constant (log K) 2H+ + L ⇄ H2L2+ / Protonation constant (log K) 3H+ + L ⇄ H3L3+ / Protonation constant (log K) 4H+ + L ⇄ H4L4+: cumulative; for Protonation constant (log K) H+ + H2L2+ ⇄ H3L3+ / Protonation constant (log K) H+ + H3L3+ ⇄ H4L4+ / Protonation constant (log K) H+ + HL+ ⇄ H2L2+: stepwise
Method: as §1, §2
To study the binding in more detail we used potentiometry. To enable this, we first investigated the protonation constants of the receptors and the data is collected in Table 1. We calibrated our system with spermine (compound 4) and the data for this compound are also included in this table and were in accordance with literature values (Bazzicalupi et al, J. Am. Chem. Soc. 121: 6807-6815 (1999); De Stefano et al., J. Chem. Soc. Faraday Trans, 94:1091-1095 (1998); Bergeron et al., J. Med. Chem. 38:2278-2285 (1995)).

[4] = Fluorimetric titrations: quenching of fluorescent phosphate derivative 13; conditions: 1:1 binding model; 0.1 M TRIS buffer pH 7.0; 13 at 5.0×10^−6 M
Method: Titrations were performed on a Spex Fluoromax-II instrument at 25° C. in a 0.1 M TRIS buffer of pH 7.0, using an excitation wavelength of 324 nm.
Upon titration of our receptors to a solution of this probe in buffered water (0.1 M Tris, pH 7.0) the emission of compound 13 was quenched indicating binding (FIG. 3).
This is related to the trans configuration of the oligoamines around the conformationally restricted scaffold in compound 1 preventing the oligoamines from cooperating.

Structure (SMILES) | first protonation pKa [1] | second protonation pKa [1] | Binding constant (Log K) H3L3+ + HA2− ⇄ H4LA+ [2] | Binding constant (Log K) H4L4+ + HA2− ⇄ H5LA2+ [2] | Protonation and binding constant (Log K) 4H+ + L + A3− ⇄ H4LA+ [2] | Protonation and binding constant (Log K) 5H+ + L + A3− ⇄ H5LA2+ [2] | phosphate in solution bound by receptor [2] [%] | affinity towards inorganic phosphate (log K), range over protonation states [2] | Protonation constant (log K) 2H+ + L ⇄ H2L2+ [3] | Protonation constant (log K) 3H+ + L ⇄ H3L3+ [3] | Protonation constant (log K) 4H+ + L ⇄ H4L4+ [3] | Protonation constant (log K) H+ + L ⇄ HL+ [3] | Protonation constant (log K) H+ + H2L2+ ⇄ H3L3+ [3] | Protonation constant (log K) H+ + H3L3+ ⇄ H4L4+ [3] | Protonation constant (log K) H+ + HL+ ⇄ H2L2+ [3] | binding constant (log K) for fluorescent phosphate derivative 13 [4] | Binding constant (Log K) H2L2+ + HA2− ⇄ H3LA [2] | Binding constant (Log K) H4L4+ + H2A− ⇄ H6LA3+ [2] | Protonation and binding constant (Log K) 3H+ + L + A3− ⇄ H3LA [2] | Protonation and binding constant (Log K) 6H+ + L + A3− ⇄ H6LA3+ [2]
NCCN [1,2-diaminoethane] | 10.1 | 7.0 | – | – | – | – | – | – | – | – | – | – | – | – | – | – | – | – | – | –
NCCCN [1,3-diaminopropane] | 10.6 | 8.6 | – | – | – | – | – | – | – | – | – | – | – | – | – | – | – | – | – | –
NCCCCN [1,4-diaminobutane] | – | 9.4 | – | – | – | – | – | – | – | – | – | – | – | – | – | – | – | – | – | –
CN(CCCN)CCCNC(=O)/C=C/C(=O)NCCCN(C)CCCN [Compound 1] | – | – | 2.90 | 3.39 | 42.87 | 50.44 | 31 | 2.9-3.4 | 20.05 | 28.42 | 35.50 | 10.45 | 8.37 | 7.08 | 9.60 | no significant binding occurs | – | – | – | –
CN(CCCN)CCCNC(=O)/C=C\C(=O)NCCCN(C)CCCN [Compound 2] | – | – | 5.27 | 8.55 | 43.27 (7) | 50.30 (7) | 95 | 4.4-8.6 | 19.06 | 26.52 | 30.27 | 10.04 | 7.46 | 3.75 | 9.02 | 5.15 | 4.40 | 7.67 | 34.94 (4) | 56.33 (9)
CN1CCCNCc2cccc(c2)CNCCCN(C)CCCNC(=O)/C=C\C(=O)NCCC1 [Compound 3] | – | – | 10.24 | – | 46.85 (4) | 53.76 (5) | – | – | 18.82 | 25.14 | 28.11 | 10.32 | 6.32 | 2.97 | 8.50 | 5.30 | 7.53 | 10.90 | 37.83 (4) | 57.40 (5)
NCCCNCCCCNCCCN [Compound 4, spermine, reference compound] | – | – | – | – | – | – | – | – | 20.63 | 29.50 | 37.58 | 10.64 | 8.87 | 8.08 | 9.99 | – | – | – | – | –
CN(CCCN)CCCNC(=O)[C@@H]1C2C=CC(C2)[C@H]1C(=O)NCCCN(C)CCCN [Compound 14] | – | – | 5.52 | 10.70 | 42.67 (3) | 50.09 (3) | 95 | – | 18.49 | 25.67 | 27.91 | 9.76 | 7.18 | 2.24 | 8.73 | – | 4.37 | 10.17 | 34.34 (3) | 56.47 (3)
